Results published in publication PMC5782818 (Bioorganic & medicinal chemistry letters, 2017).

Experiments:
VMAT2 [1] = target: T1, VMAT2 (Rattus norvegicus, UniProt Q01827); test: Vesicular [^3H]DA uptake assay; type: biochemical
METH self-administration = conditions: rats; cited from earlier work
[2] = system: sucrose-maintained responding; conditions: rats; cited from earlier work
VMAT2 [3] = target: T1, VMAT2; conditions: cited from earlier work
[4] = cited from earlier work

T1 sequence (Q01827 whole entry): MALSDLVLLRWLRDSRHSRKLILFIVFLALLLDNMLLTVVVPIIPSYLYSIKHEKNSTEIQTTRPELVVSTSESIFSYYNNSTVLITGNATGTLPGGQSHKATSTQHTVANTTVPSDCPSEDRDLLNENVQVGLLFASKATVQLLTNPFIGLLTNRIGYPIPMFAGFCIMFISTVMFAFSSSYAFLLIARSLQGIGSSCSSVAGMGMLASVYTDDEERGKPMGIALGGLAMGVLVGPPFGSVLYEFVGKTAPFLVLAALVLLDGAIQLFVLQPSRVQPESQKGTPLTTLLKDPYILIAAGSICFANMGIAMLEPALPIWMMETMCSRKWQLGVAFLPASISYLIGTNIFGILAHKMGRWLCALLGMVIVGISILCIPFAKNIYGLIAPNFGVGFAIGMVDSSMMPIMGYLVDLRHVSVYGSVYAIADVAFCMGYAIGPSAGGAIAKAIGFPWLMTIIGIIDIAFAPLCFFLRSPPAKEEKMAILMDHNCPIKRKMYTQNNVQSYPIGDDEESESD

SMILES: Cl.Cl.FCCOc1ccc(CCN2CCN(CCc3ccccc3Cl)CC2)cc1 [Compound 15f, 1-(2-chlorophenethyl)-4-(4-(2-fluoroethoxy)phenethyl)piperazine]
- fold less potent at VMAT2 than 15d (VMAT2 [1]): 32 fold

SMILES: CN1[C@@H](CCc2ccccc2)CCC[C@H]1CCc1ccccc1 [lobelane]
- effect on METH self-administration (METH self-administration): dose-dependently decreased
- effect on sucrose-maintained responding [2]: without decreasing

SMILES: CN1[C@@H](CC(=O)c2ccccc2)CCC[C@H]1C[C@H](O)c1ccccc1 [lobeline]
- effect on DA uptake into synaptic vesicles via VMAT2 (VMAT2 [3]): inhibit
- side-effects in clinical trials [4]: bitter taste and nausea
